From patent publication US3935229A, “Esters of 2-[(4-quinolyl)amino]-benzoic acids” (Synthelabo, priority 1973, dated 1976)
Where a name gives a salt, the structure may show the parent alone.

Key:
[1] = test system: mice of both sexes, of the Swiss strain; assay: in vivo; conditions: mice, oral administration
Method: Tests were carried out on mice of both sexes, of the Swiss strain, of average weight 20 g. (± 2g.).

[2] = test system: pain induced, in Swiss mice, by the intraperitoneal injection of phenylquinone; assay: Siegmund test (analgesic effect against pain induced by intraperitoneal phenylquinone); assay type: in vivo; conditions: for ED50: Mus musculus, po, read-out: Siegmund test AD50 (50% active dose), mice, oral administration
Source text: 1. Effect against pain induced, in Swiss mice, by the intraperitoneal injection of phenylquinone, in accordance with the experimental procedure of Siegmund (Proc. Soc. Exp. Biol. Med., 1957, 95, 729), modified by Cheymol (C.R. Soc. Biol., 1963, 157, 521) and Brittain (Nature, London, 1963, […], 895).

[3] = test system: carragenine-induced oedema of the paw, Sherman rats; assay: Carragenine-induced oedema test (oedema of the paw); assay type: in vivo; conditions: Rattus norvegicus, po, read-out: Carragenine-induced oedema test AD (AD40 = 40% active dose)
[4] = test system: heated plate test, Swiss mice; assay: Heated plate test (plate heated by acetone vapours; analgesic effects of the central type); conditions: oral

| SMILES | Acute toxicity LD50 (50% lethal dose) ([1]; dihydrochloride) | ED50 [2] | analgesic effects of the peripheral type (Siegmund test), compared with amidopyrine and glafenine ([2]; mice, oral, versus amidopyrine and glafenine) | ED40 [3] | analgesic effects of the central type (heated plate test), compared with amidopyrine ([4]; versus amidopyrine) | extent of the greater activity than amidopyrine in the heated plate test ([4]; versus amidopyrine) | Acute toxicity LD50 (50% lethal dose) [1] | central component of the analgesic effect (heated plate test) [4] |
| --- | --- | --- | --- | --- | --- | --- | --- | --- |
| O=C(OCCN1CCN(c2cccc(C(F)(F)F)c2)CC1)c1ccccc1Nc1ccnc2cc(C(F)(F)F)ccc12 [Compound 73-017, 2-(4'-m-trifluoromethylphenyl-piperazino)-ethyl 2-(7'-trifluoromethyl-4'-quinolyl-amino)-benzoate dihydrochloride] | 1,500 mg/kg | 4 mg/kg | generally much more active | 60 mg/kg | greater than that of amidopyrine | considerable | – | – |
| O=C(OCC(O)CO)c1ccccc1Nc1ccnc2cc(Cl)ccc12 (stereo not shown) [Glafenine, reference compound] | – | 50 mg/kg | – | 30 mg/kg | – | – | 3,500 mg/kg | much less strong |
